In patent US8008298B2, “Pyrrolopyrazine kinase inhibitors” (Roche Palo Alto, priority 2008, dated 2011) one finds melting point data, which are given here for 33 compounds.

For the compound `CC1(C(=O)c2c[nH]c3ncc(-c4cccc(N5CCN(C(=O)C6CCNCC6)CC5)c4)nc23)CCCCC1` [Example 180, (1-Methyl-cyclohexyl)-(2-{3-[4-(piperidine-4-carbonyl)-piperazin-1-yl]-phenyl}-5H-pyrrolo[2,3-b]pyrazin-7-yl)-methanone], the melting point (in general, the temperature of the solid-liquid transition) was greater than 300 °C.
Compound `CC1(C(=O)c2c[nH]c3ncc(-c4cccc(N5CCN(S(C)(=O)=O)CC5)c4)nc23)CCCCC1` [Example 181, {2-[3-(4-Methanesulfonyl-piperazin-1-yl)-phenyl]-5H-pyrrolo[2,3-b]pyrazin-7-yl}-(1-methyl-cyclohexyl)-methanone] displayed a melting point of 230 to 231 °C.
Under `CC1(C(=O)c2c[nH]c3ncc(-c4cccc(N5CCN(S(N)(=O)=O)CC5)c4)nc23)CCCCC1` [Example 183, 4-{3-[7-(1-Methyl-cyclohexanecarbonyl)-5H-pyrrolo[2,3-b]pyrazin-2-yl]-phenyl}-piperazine-1-sulfonic acid amide] stands 233 to 235 °C; under `CC1(C(=O)c2c[nH]c3ncc(-c4ccc(N5CCNCC5)cc4)nc23)CCCCC1` [Example 185, (1-Methyl-cyclohexyl)-[2-(4-piperazin-1-yl-phenyl)-5H-pyrrolo[2,3-b]pyrazin-7-yl]-methanone], 214 to 216 °C; under `CC(=O)N1CCN(c2ccc(-c3cnc4[nH]cc(C(=O)C5(C)CCCCC5)c4n3)cc2)CC1` [Example 186, 1-(4-{4-[7-(1-Methyl-cyclohexanecarbonyl)-5H-pyrrolo[2,3-b]pyrazin-2-yl]-phenyl}-piperazin-1-yl)-ethanone], 278 to 284.9 °C.
Compound `COc1cc(-c2cnc3[nH]cc(C(=O)C4(C)CCC(O)CC4)c3n2)cc(OC)c1OC` (stereo not drawn) [Example 191, (4-Hydroxy-1-methyl-cyclohexyl)-[2-(3,4,5-trimethoxy-phenyl)-5H-pyrrolo[2,3-b]pyrazin-7-yl]-methanone] gave a melting point of 242 to 244 °C.
As for `CN(C)C1CCN(c2cccc(-c3cnc4[nH]cc(C(=O)C(C)(C)C)c4n3)c2)C1` (stereo not drawn) [Example 202, 1-{2-[3-(3-Dimethylamino-pyrrolidin-1-yl)-phenyl]-5H-pyrrolo[2,3-b]pyrazin-7-yl}-2,2-dimethyl-propan-1-one], the figure is 204 to 206 °C; as for `CCNC1CCN(c2cccc(-c3cnc4[nH]cc(C(=O)C(C)(C)C)c4n3)c2)C1` (stereo not drawn) [Example 208, 1-{2-[3-(3-Ethylamino-pyrrolidin-1-yl)-phenyl]-5H-pyrrolo[2,3-b]pyrazin-7-yl}-2,2-dimethyl-propan-1-one], 200 to 202 °C; as for `COC(=O)C1(C)CCN(c2cccc(-c3cnc4[nH]cc(C(=O)C(C)(C)C)c4n3)c2)C1` (stereo not drawn) [Example 209, 1-{3-[7-(2,2-Dimethyl-propionyl)-5H-pyrrolo[2,3-b]pyrazin-2-yl]-phenyl}-3-methyl-pyrrolidine-3-carboxylic acid methyl ester], 198 to 200 °C.
`CNC(=O)C1(C)CCN(c2cccc(-c3cnc4[nH]cc(C(=O)C(C)(C)C)c4n3)c2)C1` (stereo not drawn) [Example 210, 1-{3-[7-(2,2-Dimethyl-propionyl)-5H-pyrrolo[2,3-b]pyrazin-2-yl]-phenyl}-3-methyl-pyrrolidine-3-carboxylic acid methylamide] returned a melting point of 252 to 254 °C.
Turning to `CC1(N)CCN(c2cccc(-c3cnc4[nH]cc(C(=O)C(C)(C)C)c4n3)c2)C1` (stereo not drawn) [Example 212, 1-{2-[3-(3-Amino-3-methyl-pyrrolidin-1-yl)-phenyl]-5H-pyrrolo[2,3-b]pyrazin-7-yl}-2,2-dimethyl-propan-1-one], the melting point was 216 to 218 °C.
As for `COc1cc(-c2cnc3[nH]cc(C(=O)C4(C)CCC(=O)C4)c3n2)cc(OC)c1OC` (stereo not drawn) [Example 214, 3-Methyl-3-[2-(3,4,5-trimethoxy-phenyl)-5H-pyrrolo[2,3-b]pyrazine-7-carbonyl]-cyclopentanone], the figure is 238 to 240 °C; as for `CC1(C(=O)c2c[nH]c3ncc(-c4cccc(N5CCCC5)c4)nc23)CC[C@@H]2CCC[C@@H]21` (stereo partly drawn) [Example 215, ((3aS,6aS)-1-Methyl-octahydro-pentalen-1-yl)-[2-(3-pyrrolidin-1-yl-phenyl)-5H-pyrrolo[2,3-b]pyrazin-7-yl]-methanone], 200 to 202 °C; as for `CC(C)(C)C(=O)c1c[nH]c2ncc(-c3cccc(N)c3)nc12` [Example 226, 1-[2-(3-Amino-phenyl)-5H-pyrrolo[2,3-b]pyrazin-7-yl]-2,2-dimethyl-propan-1-one], 239 to 241 °C.
Regarding `CCNc1cccc(-c2cnc3[nH]cc(C(=O)C(C)(C)C)c3n2)c1` [Example 227, 1-[2-(3-Ethylamino-phenyl)-5H-pyrrolo[2,3-b]pyrazin-7-yl]-2,2-dimethyl-propan-1-one], the melting point was 189 to 191 °C.
For `CC(=O)Nc1cccc(-c2cnc3[nH]cc(C(=O)C(C)(C)C)c3n2)c1` [Example 228, N-{3-[7-(2,2-Dimethyl-propionyl)-5H-pyrrolo[2,3-b]pyrazin-2-yl]-phenyl}-acetamide], the melting point fell in the range of 249 to 250 °C.
Under `CC(C)(C)C(=O)c1c[nH]c2ncc(-c3cccc(N4CCS(=O)(=O)CC4)c3)nc12` [Example 230, 1-{2-[3-(1,1-Dioxo-1lambda*6*-thiomorpholin-4-yl)-phenyl]-5H-pyrrolo[2,3-b]pyrazin-7-yl}-2,2-dimethyl-propan-1-one] stands 279 to 280 °C; under `CC(C)(C)C(=O)c1c[nH]c2ncc(-c3cccc(-n4cccc4)c3)nc12` [Example 232, 2,2-Dimethyl-1-[2-(3-pyrrol-1-yl-phenyl)-5H-pyrrolo[2,3-b]pyrazin-7-yl]-propan-1-one], 220 to 222 °C.
The compound `CC(C)(C)C(=O)c1c[nH]c2ncc(-c3cccc(NS(=O)(=O)c4ccccc4)c3)nc12` [Example 234, N-{3-[7-(2,2-Dimethyl-propionyl)-5H-pyrrolo[2,3-b]pyrazin-2-yl]-phenyl}-benzenesulfonamide] displayed a melting point of 217 to 219 °C.
In turn, `CC(C)(C)C(=O)c1c[nH]c2ncc(-c3cccc(NS(=O)(=O)c4ccc(N)cc4)c3)nc12` [Example 235, 4-Amino-N-{3-[7-(2,2-dimethyl-propionyl)-5H-pyrrolo[2,3-b]pyrazin-2-yl]-phenyl}-benzenesulfonamide] yielded a melting point of 285 to 286 °C.
The compound `CC(C)(C)C(=O)c1c[nH]c2ncc(-c3cccc(NC4=NCCN4)c3)nc12` [Example 236, 1-{2-[3-(4,5-Dihydro-1H-imidazol-2-ylamino)-phenyl]-5H-pyrrolo[2,3-b]pyrazin-7-yl}-2,2-dimethyl-propan-1-one] gave a melting point of 228 to 230 °C.
`CC(C)(C)C(=O)c1c[nH]c2ncc(-c3cccc(C#N)c3)nc12` [Example 237, 3-[7-(2,2-Dimethyl-propionyl)-5H-pyrrolo[2,3-b]pyrazin-2-yl]-benzonitrile] yielded a melting point of 248 to 249 °C.
`COc1cc(-c2cnc3[nH]cc(C(=O)N4CCCC4)c3n2)cc(OC)c1OC` [Example 240, Pyrrolidin-1-yl-[2-(3,4,5-trimethoxy-phenyl)-5H-pyrrolo[2,3-b]pyrazin-7-yl]-methanone] returned a melting point of 210 to 212 °C.
On to `CCOc1cc(-c2cnc3[nH]cc(C(=O)C(C)(C)C)c3n2)cc(N2CCCC2)c1` [Example 262, 1-[2-(3-Ethoxy-5-pyrrolidin-1-yl-phenyl)-5H-pyrrolo[2,3-b]pyrazin-7-yl]-2,2-dimethyl-propan-1-one], for which the melting point was in the range of 236 to 237 °C.
`CC(C)(C)C(=O)c1c[nH]c2ncc(-c3cc(OCCS(C)(=O)=O)cc(N4CCCC4)c3)nc12` [Example 267, 1-{2-[3-(2-Methanesulfonyl-ethoxy)-5-pyrrolidin-1-yl-phenyl]-5H-pyrrolo[2,3-b]pyrazin-7-yl}-2,2-dimethyl-propan-1-one]: the melting point fell in the range of 230 to 232 °C.
As for `COc1cc(-c2cnc3[nH]cc(C(=O)C(C)(C)C)c3n2)cc(N2CC[S+]([O-])CC2)c1` [Example 269, 1-{2-[3-Methoxy-5-(1-oxo-1lambda*4*-thiomorpholin-4-yl)-phenyl]-5H-pyrrolo[2,3-b]pyrazin-7-yl}-2,2-dimethyl-propan-1-one], the figure is 259 to 260 °C; as for `Cn1nccc1-c1ccc(-c2cnc3[nH]cc(C(=O)C(C)(C)C)c3n2)cc1` [Example 281, 2,2-Dimethyl-1-{2-[4-(2-methyl-2H-pyrazol-3-yl)-phenyl]-5H-pyrrolo[2,3-b]pyrazin-7-yl}-propan-1-one], 257 to 258 °C; as for `CC(C)(C)C(=O)c1c[nH]c2ncc(-c3cccc(N4CC5(COC5)C4)c3)nc12` [Example 282, 2,2-dimethyl-1-{2-[3-(2-oxa-6-aza-spiro[3.3]hept-6-yl)-phenyl]-5H-pyrrolo[2,3-b]pyrazin-7-yl}-propan-1-one], 260 to 262 °C.
Turning to `CC1(C(=O)c2c[nH]c3ncc(-c4cccc(N5CCCC5=O)c4)nc23)CCCCC1` [Example 283, 1-{3-[7-(1-methyl-cyclohexanecarbonyl)-5H-pyrrolo[2,3-b]pyrazin-2-yl]-phenyl}-pyrrolidin-2-one], the melting point fell in the range of 215 to 217 °C.
Compound `COc1ccc(F)cc1-c1cnc2[nH]cc(C(=O)CC(C)C)c2n1` [Example I-5, 1-[2-(5-Fluoro-2-methoxy-phenyl)-5H-pyrrolo[2,3-b]pyrazin-7-yl]-3-methyl-butan-1-one] returned a melting point of 186 to 187 °C.
With `CC(C)CC(=O)c1c[nH]c2ncc(-c3cccc(N4CCCC4)c3)nc12` [Example I-6, 3-Methyl-1-[2-(3-pyrrolidin-1-yl-phenyl)-5H-pyrrolo[2,3-b]pyrazin-7-yl]-butan-1-one], the melting point was 260 to 261 °C.
In turn, `CNC(=O)c1cccc(-c2cnc3[nH]cc(C(=O)CC(C)C)c3n2)c1` [Example I-9, N-Methyl-3-[7-(3-methyl-butyryl)-5H-pyrrolo[2,3-b]pyrazin-2-yl]-benzamide] had a melting point of 243 to 244 °C.
Compound `CC(C)(C)C(=O)c1c[nH]c2ncc(-c3ccc(OCCN4CCOCC4)cc3)nc12` [Example I-40, 2,2-Dimethyl-1-{2-[4-(2-morpholin-4-yl-ethoxy)-phenyl]-5H-pyrrolo[2,3-b]pyrazin-7-yl}-propan-1-one] registered a melting point of 198.4 to 202.7 °C.
